According to ChEMBL document CHEMBL1201862, “PubChem BioAssay data set” (2004):
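Grown in 96-well plates, cells were treated for 48 hours with each compound at five concentrations. Insufficient inhibition: endpoint recorded as highest concentration tested. GI50 marks 50% less growth.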 Activity calls are given as the source filed them. Cut-off read from the data, not from the text of the source: active = GI50 up to about 1.1 µM and inactive = higher.

How the values were obtained:
Assay in all cases: NCI tumour cell line growth inhibition, 48 h
786-0 = test system: 786-0
A498 = test system: A498
A549 = test system: A549
ACHN = test system: ACHN
BT-549 = test system: BT-549
CAKI-1 = test system: CAKI-1
CCRF-CEM = test system: CCRF-CEM
COLO 205 = test system: COLO 205
DU-145 = test system: DU-145
EKVX = test system: EKVX
HCC 2998 = test system: HCC 2998
HCT-116 = test system: HCT-116
HCT-15 = test system: HCT-15
HL-60 = test system: HL-60
HOP-62 = test system: HOP-62
HOP-92 = test system: HOP-92
HT-29 = test system: HT-29
Hs-578T = test system: Hs-578T
IGROV-1 = test system: IGROV-1
K562 = test system: K562
KM12 = test system: KM12
LOX IMVI = test system: LOX IMVI
M14 = test system: M14
MCF7 = test system: MCF7
MDA-MB-231 = test system: MDA-MB-231
MDA-MB-435 = test system: MDA-MB-435
MDA-N = test system: MDA-N
MOLT-4 = test system: MOLT-4
Malme-3M = test system: Malme-3M
NCI-H226 = test system: NCI-H226
NCI-H23 = test system: NCI-H23
NCI-H460 = test system: NCI-H460
NCI-H522 = test system: NCI-H522
NCI/ADR-RES = test system: NCI/ADR-RES
OVCAR-3 = test system: OVCAR-3
OVCAR-4 = test system: OVCAR-4
OVCAR-5 = test system: OVCAR-5
OVCAR-8 = test system: OVCAR-8
PC-3 = test system: PC-3
RPMI-8226 = test system: RPMI-8226
RXF 393 = test system: RXF 393
SF-268 = test system: SF-268
SF-295 = test system: SF-295
SF-539 = test system: SF-539
SK-MEL-28 = test system: SK-MEL-28
SK-MEL-2 = test system: SK-MEL-2
SK-MEL-5 = test system: SK-MEL-5
SK-OV-3 = test system: SK-OV-3
SN12C = test system: SN12C
SNB-19 = test system: SNB-19
SNB-75 = test system: SNB-75
SR = test system: SR
SW-620 = test system: SW-620
T47D = test system: T47D
TK-10 = test system: TK-10
U-251 = test system: U-251
UACC-257 = test system: UACC-257
UACC-62 = test system: UACC-62
UO-31 = test system: UO-31

Measured: GI50

CC(C)=CCc1c(O)c(CC=C(C)C)c2oc(-c3ccc(O)cc3O)c(CC=C(C)C)c(=O)c2c1O
inactive: 786-0 8.91 µM | A498 13.8 µM | A549 5.4 µM | ACHN 7.62 µM | BT-549 7.98 µM | CAKI-1 12.7 µM | CCRF-CEM 2.1 µM | COLO 205 27.1 µM | DU-145 12.4 µM | EKVX 12.4 µM | HCC 2998 4.06 µM | HCT-116 4.97 µM | HL-60 7.06 µM | HOP-62 9.06 µM | HOP-92 8.26 µM | HT-29 7.96 µM | Hs-578T 7.76 µM | IGROV-1 10.6 µM | K562 4.05 µM | KM12 5.57 µM | LOX IMVI 5.26 µM | M14 8.83 µM | MCF7 3.98 µM | MDA-MB-231 12.6 µM | MDA-MB-435 4.52 µM | MDA-N 7.82 µM | MOLT-4 3.33 µM | Malme-3M 16.3 µM | NCI-H226 23 µM | NCI-H23 5.56 µM | NCI-H460 4.48 µM | NCI-H522 7.31 µM | NCI/ADR-RES 12.3 µM | OVCAR-3 7.1 µM | OVCAR-4 5.51 µM | OVCAR-5 14.8 µM | OVCAR-8 4.88 µM | PC-3 6.46 µM | RPMI-8226 3.43 µM | RXF 393 4.99 µM | SF-268 9.16 µM | SF-295 7.45 µM | SF-539 16.3 µM | SK-MEL-28 12.2 µM | SK-MEL-2 3.66 µM | SK-MEL-5 10.8 µM | SK-OV-3 13.3 µM | SN12C 8.59 µM | SNB-19 12.6 µM | SNB-75 10.6 µM | SR 2.34 µM | SW-620 6.1 µM | T47D 3.97 µM | TK-10 8.85 µM | U-251 9.12 µM | UACC-257 12.5 µM | UACC-62 7.14 µM | UO-31 8.22 µM
5.47 µM: HCT-15

CC12Nc3c(Cl)cc(Cl)cc3N1C(=O)c1ccccc12 (stereo unspecified)
> 100 µM: HCT-15
inactive: 786-0 > 100 µM | A498 18.5 µM | A549 > 100 µM | ACHN > 100 µM | BT-549 71.6 µM | CAKI-1 > 100 µM | CCRF-CEM > 100 µM | COLO 205 > 100 µM | DU-145 > 100 µM | EKVX 57 µM | HCC 2998 > 100 µM | HCT-116 > 100 µM | HL-60 51.6 µM | HOP-62 > 100 µM | HOP-92 17.9 µM | HT-29 > 100 µM | Hs-578T 48 µM | IGROV-1 92.3 µM | K562 > 10 µM | KM12 > 100 µM | LOX IMVI 96.6 µM | MCF7 > 100 µM | MDA-MB-231 > 100 µM | MDA-MB-435 > 100 µM | MDA-N > 100 µM | MOLT-4 58.7 µM | Malme-3M > 100 µM | NCI-H226 68.7 µM | NCI-H23 > 100 µM | NCI-H460 95.5 µM | NCI-H522 97.1 µM | NCI/ADR-RES 91.8 µM | OVCAR-3 > 100 µM | OVCAR-4 90.2 µM | OVCAR-5 > 100 µM | OVCAR-8 > 100 µM | PC-3 > 100 µM | RPMI-8226 > 100 µM | RXF 393 78.3 µM | SF-268 > 100 µM | SF-295 > 100 µM | SF-539 > 100 µM | SK-MEL-28 > 100 µM | SK-MEL-2 > 100 µM | SK-MEL-5 > 100 µM | SK-OV-3 > 100 µM | SN12C > 100 µM | SNB-75 > 100 µM | SR 63.8 µM | SW-620 > 100 µM | T47D > 100 µM | TK-10 42.2 µM | U-251 > 100 µM | UACC-257 > 100 µM | UACC-62 > 100 µM | UO-31 52.7 µM
